Data from US8354106B2, “Antibodies against HMGB1 and fragments thereof” (The Feinstein Institute for Medical Research, priority 2005, dated 2013).
Where no end group is shown, it is not given here. The star is where a group is joined. Biotin = O=C1N[C@H]2[C@H](CS[C@H]2CCCCC(=O)*)N1

What was measured:
immature BM-DCs = test: Phenotypic maturation of murine BM-DCs: surface maturation markers by FACS; assay type: cell-based, mouse; conditions: CD11c+ gated, mean fluorescence intensity, peptide 200 μg/ml, HMGB1-Bx 50 μg/ml; for CD86 expression on the surface of BM-DCs: FIG. 3A; for MHC-II expression on the surface of BM-DCs: FIG. 3B; for CD40 expression on the surface of BM-DCs: FIG. 3C
Procedure: In order to determine whether HMGB1-Bx and/or particular HMGB1 peptides could induce phenotypic maturation of murine DCs, immature BM-DCs were exposed to either HMGB1-Bx, a particular HMGB1 peptide, or LPS (FIG. 3). Fluorescence activated cell sorting (FACS) analysis was performed on immature DCs that were cultured in the presence of either HMGB1-Bx (50 μg/ml), an HMGB1 peptide (200 μg/ml), or LPS (100 ng/ml). Untreated DCs (medium) were also tested as a control. DCs were gated on CD11c^+ cells and analyzed for expression of specific maturation markers (e.g., CD86, MHC-II, CD40) by surface membrane immunofluorescence. In particular, 1×10^4 DCs were reacted for at least 20 min at 4° C. in […] of PBS/5% FCS/0.1% sodium azide (staining buffer) with fluorescein isothiocyanate (FITC)-conjugated IgG monoclonal antibodies (mAbs) that are specific for CD86, CD40 or MHC-II (eBioscience). Cells were then washed 4 times with staining buffer, fixed in 10% formaldehyde in PBS (pH 7.2-7.4) and examined by flow cytometry using a FACScan (BD Biosciences). In all experiments, isotype controls were included using a FITC-conjugated irrelevant mAb of the same Ig class. Results are depicted as mean fluorescence intensity (MFI).

[1] = tested on: human immature monocyte-derived dendritic cells (DCs); test: Cytokine/chemokine secretion by human immature monocyte-derived dendritic cells (ELISA); assay type: cell-based; set-up: key to TNFα secretion / IL-18 secretion / IL-8 secretion / IL-10 secretion / IL-6 secretion / IL-12 secretion: “+” indicates an increase; “−” indicates no change relative to untreated cells (medium); conditions: for IL-6 secretion / IL-8 secretion / IL-10 secretion / IL-12 secretion / IL-18 secretion / TNFα secretion: HUMAN DC, ELISA 48 h after exposure, relative to untreated cells; for secretion of IL-6 by DCs: FIGS. 1A, 1B
Procedure: Peripheral blood mononuclear cells (PBMCs) were isolated from the blood of normal volunteers (Long Island Blood Services, Melville, N.Y.) over a Ficoll-Hypaque (Amersham Biosciences, Uppsala, Sweden) density gradient. CD14^+ monocytes were isolated from PBMCs by positive selection using anti-CD14 beads (Miltenyi Biotech., Auburn, Calif.), following the manufacturer's instructions. To generate DCs, CD14^+ cells were cultured in RPMI 1640 medium supplemented with 2 mM L-glutamine (GIBCO-BRL Life Technologies, Grand Island, N.Y.), 50 μM 2-mercaptoethanol (Sigma, St. Louis, Mo.), 10 mM HEPES (GIBCO-BRL), penicillin (100 U/ml), streptomycin (100 μg/ml) (GIBCO-BRL), and 5% human AB serum (Gemini Bio-Products, Woodland, Calif.). Cultures were maintained for 7 days in 6-well trays (3×10^6 cells/well) supplemented with 1000 U GM-CSF per ml (Immunex, Seattle, Wash.) and 200 U IL-4 per ml (R&D Systems, Minneapolis, Minn.) at days 0, 2, 4 and 6.
Recombinant HMGB1-B box domain (HMGB1-Bx) was expressed in Escherichia coli and purified as described by Li, et al. (Mol. Med. 9:37-45; J. Immunol. Methods 289:211-223 (2004)). Purified HMGB1-Bx contained trace amounts of LPS (19 pg LPS/μg HMGB1-Bx) as measured by the chromogenic Limulus amebocyte lysate assay (BioWhittacker Inc, Walkersville, Md.). All experiments using HMGB1-Bx, as well as the HMGB1 peptides, were performed in the presence of polymyxin B (200 U/ml) to neutralize the amount of contaminating LPS in the HMGB1-Bx and peptide preparations. We have previously shown that the DC stimulatory capacity of HMGB1-Bx requires an intact tertiary structure and is not due to contaminating amounts of LPS, as trypsinization abolished HMGB1-Bx activity (Messmer, et al., J. Immunol. 173: 307-313 (2004); the entire teachings of which are incorporated herein by reference).
Secreted cytokine/chemokine levels were measured by ELISA (Pierce Boston Technology Center, SearchLight™ Proteome Arrays Multiplex Sample Testing Services, Woburn, Mass.) 48 h after addition of the various peptides. Polymyxin B (200 U/ml) was added to all cultures, except those containing LPS, before the stimuli were added. Immature monocyte-derived human dendritic cells (DCs) and immature bone-marrow derived murine dendritic cells (BM-DCs) were cultured either in the presence of HMGB1 peptides (200 μg/ml), whose sequences map to different regions of the HMGB1 protein (see Table 1), the entire HMGB1 B-box domain (HMGB1-Bx) (50 μg/ml), or LPS (100 ng/ml). Untreated cells (medium) were tested as a control. Each peptide was named according to the corresponding position of its first amino acid within the full-length HMGB1 sequence. All peptides were N-terminally biotinylated except “Hp-106 (non bio)”.

[2] = peptides 200 μg/ml, HMGB1-Bx 50 μg/ml
[3] = human DCs, peptides 200 μg/ml, 48 h

Row | Sequence | CD86 expression on the surface of BM-DCs (immature BM-DCs) | MHC-II expression on the surface of BM-DCs (immature BM-DCs) | CD40 expression on the surface of BM-DCs (immature BM-DCs) | IL-6 secretion [1, 2] | IL-8 secretion [1, 2] | IL-10 secretion [1, 2] | IL-12 secretion [1, 2] | IL-18 secretion [1, 2] | TNFα secretion [1, 2] | cytokine secretion by human DCs ([1]; human DCs) | secretion of IL-12 (p70) ([1]; human DCs, FIG. 1C, peptides 200 μg/ml, 48 h) | secretion of TNF-α ([1]; human DCs, FIG. 1D, peptides 200 μg/ml, 48 h) | secretion of IL-18 ([1]; human DCs, FIG. 1E, peptides 200 μg/ml, HMGB1-Bx 50 μg/ml, 48 h) | secretion of IL-8 ([1]; human DCs, FIG. 1F, peptides 200 μg/ml, HMGB1-Bx 50 μg/ml, 48 h) | secretion of IL-6 by DCs [1, 3]
1 | CSEYRPKIKGEHPGLSIG [Hp-106] (Biotin-CSEYRPKIKGEHPGLSIG; listed as Homo sapiens) | did not significantly enhance | did not significantly enhance | did not significantly enhance | + | − | − | + | + | + | induced cytokine secretion by human DCs | induced secretion | induced secretion | induced secretion | did not induce secretion | induced secretion
2 | YAFFVQTCREEHIKKHPD [Hp-16] | strong upregulation | strong upregulation | strong upregulation | − | − | − | − | − | − | did not stimulate cytokine secretion and not |  |  |  |  | did not induce IL-6 secretion
